Like-named read-outs stand apart in the source and are kept apart here. Blank lines part the entries; values can stand above or below the molecule they belong to.
Experiments:
[1] = test system: maximal electroshock-induced seizures (MES); assay: maximal electroshock-induced seizures (MES) test in mice; format: in vivo; conditions: Mus musculus
Experimental: The compounds of the present invention may be tested for in vivo anticonvulsant activity after iv. po or ip injection using a number of anticonvulsant tests in mice (audiogenic seizure model in DBA-2 mice, pentylenetetrazol-induced seizures in mice, maximum electroshock seizure test (MES)).
The ability of 1-[4-(4-fluorophenoxy)benzyl]semicarbazide to block maximal electroshock-induced seizures (MES) was determined by the following procedure.
Seizures were induced by application of current (50 mA, 60 pulses/sec, 0.8 msec pulse width, 1 sec duration, D.C.) using a Ugo Basile ECT device (model 7801). Mice were restrained by gripping the loose skin on their dorsal surface and saline-coated corneal electrodes were held lightly against the two cornea. […] A tonic seizure was defined as a hindlimb extension in excess of 90 degrees from plane of the body.
1-[4-(4-Fluorophenoxy)benzyl]semicarbazide was administered iv to mice 10 min before the test procedure.

hSkM1 sodium channels = molecular target: T1, hSkM1 sodium channels (Homo sapiens, UniProt P35499); assay: Electrophysiological assay: whole-cell patch-clamp recordings of voltage-gated Na+ currents in HEK-293 cells stably expressing hSkM1; format: cell-based
T1 construct: expressed in transfected cells
T1 sequence (P35499 whole entry): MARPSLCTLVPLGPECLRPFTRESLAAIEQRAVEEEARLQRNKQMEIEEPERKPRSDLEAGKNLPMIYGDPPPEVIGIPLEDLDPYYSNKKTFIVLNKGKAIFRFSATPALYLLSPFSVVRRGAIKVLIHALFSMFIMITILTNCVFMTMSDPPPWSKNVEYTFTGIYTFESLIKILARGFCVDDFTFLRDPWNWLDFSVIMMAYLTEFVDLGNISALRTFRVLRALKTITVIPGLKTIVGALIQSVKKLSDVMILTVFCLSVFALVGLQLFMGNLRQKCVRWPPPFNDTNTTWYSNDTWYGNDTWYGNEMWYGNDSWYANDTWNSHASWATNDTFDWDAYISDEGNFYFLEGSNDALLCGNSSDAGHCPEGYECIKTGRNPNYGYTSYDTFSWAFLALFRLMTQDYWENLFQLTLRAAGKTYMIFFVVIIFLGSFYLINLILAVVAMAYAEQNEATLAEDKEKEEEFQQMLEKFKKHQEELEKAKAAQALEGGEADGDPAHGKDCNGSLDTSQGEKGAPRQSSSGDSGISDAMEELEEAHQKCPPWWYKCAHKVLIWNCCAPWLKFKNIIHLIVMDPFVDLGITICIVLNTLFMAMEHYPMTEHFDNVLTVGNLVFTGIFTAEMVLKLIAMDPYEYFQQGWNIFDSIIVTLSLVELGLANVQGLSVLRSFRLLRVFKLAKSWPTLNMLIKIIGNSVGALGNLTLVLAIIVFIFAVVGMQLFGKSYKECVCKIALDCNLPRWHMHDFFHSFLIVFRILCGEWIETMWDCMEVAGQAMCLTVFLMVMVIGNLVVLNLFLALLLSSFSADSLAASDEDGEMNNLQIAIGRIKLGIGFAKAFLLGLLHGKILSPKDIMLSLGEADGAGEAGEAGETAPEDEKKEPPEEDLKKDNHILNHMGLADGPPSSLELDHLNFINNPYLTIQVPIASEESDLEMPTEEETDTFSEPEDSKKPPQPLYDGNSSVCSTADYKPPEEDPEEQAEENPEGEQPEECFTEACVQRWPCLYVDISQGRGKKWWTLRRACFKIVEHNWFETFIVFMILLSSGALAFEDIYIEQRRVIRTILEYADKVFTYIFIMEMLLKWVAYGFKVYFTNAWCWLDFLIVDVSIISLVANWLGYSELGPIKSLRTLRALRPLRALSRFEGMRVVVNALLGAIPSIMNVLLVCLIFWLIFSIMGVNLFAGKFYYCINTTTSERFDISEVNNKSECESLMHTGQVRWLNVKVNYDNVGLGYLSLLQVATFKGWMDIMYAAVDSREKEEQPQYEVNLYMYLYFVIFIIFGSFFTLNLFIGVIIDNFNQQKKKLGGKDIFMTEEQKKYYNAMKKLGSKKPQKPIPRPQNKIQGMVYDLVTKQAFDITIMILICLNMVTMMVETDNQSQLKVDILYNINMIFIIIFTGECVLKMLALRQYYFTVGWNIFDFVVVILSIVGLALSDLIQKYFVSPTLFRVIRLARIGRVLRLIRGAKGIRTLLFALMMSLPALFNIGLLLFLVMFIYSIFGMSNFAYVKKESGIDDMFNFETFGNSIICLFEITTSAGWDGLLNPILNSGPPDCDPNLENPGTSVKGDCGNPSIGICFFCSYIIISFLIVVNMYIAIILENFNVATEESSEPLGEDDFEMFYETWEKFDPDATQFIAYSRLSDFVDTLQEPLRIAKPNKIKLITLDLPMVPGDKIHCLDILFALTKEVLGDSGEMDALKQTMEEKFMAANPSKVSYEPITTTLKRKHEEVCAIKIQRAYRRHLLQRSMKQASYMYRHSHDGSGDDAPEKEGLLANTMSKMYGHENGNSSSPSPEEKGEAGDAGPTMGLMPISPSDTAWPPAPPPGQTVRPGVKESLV
Experimental: Electrophysiological Assay:
Cellpreparation: HEK-293 cells stably expressing the hSkM1 isoform of Na^+ channels (generous gift from Dr. A. L. George, Vanderbilt University Medical School) were cultured using standard techniques, as described previously (Verdoorn, T. A, et al., Neuron 4:919-928 (1990)). For electrophysiology, cells were plated onto 35 mm Petri dishes (pre-coated with poly-D-lysine) at a density of 1:40 on the day of re-seeding from confluent cultures. Cells are suitable for recordings for 2-3 days after plating.
Patch-clamp recordings of voltage-sensitive Na^+ currents: Whole-cell voltage-clamp recordings were made using conventional patch-clamp techniques (Hamill et al, Pfluegers Arch. 391:85-100 (1981)) with an Axopatch 200 A amplifier (Axon Instruments, Foster City, Calif.). Recordings were made within 2-3 hours after neuron dissociation. The recording chamber was continuously superfused with the external solution (150 mM NaCl, 5.4 mM KCl, 1.8 mM CaCl2, 1 mM MgCl2, 10 mM HEPES, 10 mM glucose, pH 7.4 (NaOH)) at a speed of about 1 ml/min. Recording pipettes were pulled from thick-walled capillaries (WPI, Sarasota, Fla.) and fire-polished. The pipette resistances ranged from 1 to 3 M.OMEGA. when the pipettes were filled with internal solution containing (in mM): 110 CsF, 10 NaCl, 5 MgCl2, 11 EGTA, 10 HEPES, pH adjusted to 7.4 with CsOH. Osmolality was set with a difference of 15-20 mmol/kg between external and internal solutions (lower inside the cell). Drugs and intervening wash-outs were applied through a linear array of flow pipes (Drummond Microcaps, 2-μl, 64-mm length). Compounds are dissolved in dimethylsulfoxide (DMSO) to make a […] stock solution, which was subsequently diluted into the external solution to give final concentrations of 0.1-100 μM. At the highest (1%) concentration, DMSO inhibited the size of Na^+ current only slightly. Currents were recorded at room temperature (22-25° C.), filtered at 5 kHz with an active 8-pole Bessel filter (Frequency Devices, Haverhill, Mass.), digitized at 10-50-μs intervals, and stored using Digidata 1200 analog/digital interface with Pclamp6/Clampex software (Axon Instruments).Series resistance was cancelled typically by ~75% when necessary. The inhibitory potency of drugs was assessed by measuring reductions in the peak amplitude of Na^+ currents induced by increasing concentrations of compounds tested. Na^+ currents were elicited by stepping membrane voltage from holding potentials over the range -100 mV to -50 mV, to a pulse potential of -10 mV. The test pulse duration was 5-10 msec, repeated at a frequency ≤1 Hz. Concentration-inhibition curves were fitted with equation 1:
I/Icontrol =1/(1+([compound]/IC50)) Eq. 1 […]

[2] = test system: global and focal ischemia; conditions: animal models of global and focal ischemia; cited from earlier work
ALS = conditions: subset of patients with ALS; cited from earlier work
[3] = HEK-293 cells stably expressing hSkM1

SMILES: NC(=O)NNCc1ccc(Oc2ccc(F)cc2)c(F)c1 [1-[3-Fluoro-4-(4-fluorophenoxy)benzyl]semicarbazide]
ED50 ([1]; po, read-out: ED50 against MES): 3.2 mg/kg

inhibition of voltage-gated sodium currents (hSkM1 sodium channels; [3]): dose-dependent inhibition | sensitivity of blocking effect on Na+ currents to the holding voltage (hSkM1 sodium channels; [3]): highly sensitive to the holding voltage | Kd (hSkM1 sodium channels; inactivated sodium channels, read-out: apparent antagonist dissociation constant (Kd) for inactivated sodium channels): ~7.5 µM | potency towards Na+ channels in their resting states (hSkM1 sodium channels; resting states): weak potency
SMILES: NC(=O)NNCc1ccc(Oc2ccc(F)cc2)cc1 [1-[4-(4-Fluorophenoxy)benzyl]semicarbazide]
ED50 ([1]; 10 min, iv, 10 min before the test, read-out: ED50 (the dose protecting 50% of animals) against MES): 4.2 mg/kg

SMILES: CN1CCN(c2ncc(-c3cc(Cl)cc(Cl)c3Cl)c(N)n2)CC1 [BW619C89]
neuroprotective activity [2]: neuroprotective

SMILES: Cc1ccc(-c2nc(C)c(CN3CCN(C(c4ccccc4)c4ccccc4)CC3)[nH]2)cc1 [lifarizine]
neuroprotective activity [2]: neuroprotective

SMILES: Nc1nc2ccc(OC(F)(F)F)cc2s1 [riluzole]
survival (ALS): prolong survival

Source: patent US6281211A, “Substituted semicarbazides and the use thereof” (Euro-Celtique S.A., priority 2000, dated 2001)
